These molecules were tested on HMPV clinical isolate A2 strain TN 94-49 (assay: HMPV antiviral assay, Method 2 (LLC-MK2 cells with CP-100-356, ATP-Lite)). Conditions: human metapneumovirus, 168 h; hMPV A2 TN/94-49, LLC-MK2 cells with 4 μM CP-100-356, 7 days, ATP-Lite.
Format: cell-based
In short: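 EC50 comes from a four-parameter fit of percent cell viability (ATP-Lite, normalized to virus-only and cell-only wells) after 7 days at 37 °C. Infection used HMPV A2 TN 94-49 at MOI 0.16 in LLC-MK2 cells, with 2 μM P-gp inhibitor CP-100-356 and 2 μg/mL TPCK-trypsin final; dose range 200 nM top, 2.5-fold, 10 points, duplicate.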

EC50, < 200 nM:
C[C@]1(C(N)=O)COc2c1cc([C@@](O)(CNC(=O)c1cc(OC3CC3)c3nn(C4(F)CC4)cc3c1)C1CC1)nc2-n1ncc2c(F)cccc21 [Example 651], COc1nccc(-c2nc([C@@](O)(CNC(=O)c3cc(OC)c4nn(C5CC5)cc4c3)c3ccc(F)cc3)cc3c2OC[C@]3(C)C(N)=O)c1Cl [Example 696], COc1nccc(-c2nc([C@@](O)(CNC(=O)c3cc(OC4CC4)c4nn(C5CC5)cc4c3)C3(F)CC3)cc3c2OC[C@]3(C)C(N)=O)c1Cl [Example 657], COc1nccc(-c2nc([C@@](O)(CNC(=O)c3cc(OC)n4nc(C5CC5)cc4c3)C3(F)CC3)cc3c2OC[C@]3(C)C(N)=O)c1Cl [Example 656], COc1cc(C(=O)NC[C@](O)(c2cc3c(c(-c4cc(C(F)(F)F)ncc4F)n2)OC[C@]3(C)C(N)=O)C2(F)CC2)cc2cn(C(F)F)nc12 [Example 667], COc1nccc(-c2nc([C@@](O)(CNC(=O)c3cc(OC)c4nn(C(F)F)cc4c3)C(F)(F)F)cc3c2OC[C@]3(C)C(N)=O)c1Cl [Example 798], COc1cc(C(=O)NC[C@](O)(c2cc3c(c(-c4cccc(F)c4Cl)n2)OC[C@]3(C)C(N)=O)C2(F)CC2)cc2cn(C3CC3)nc12 [Example 617], COc1cc(C(=O)NC[C@@](O)(c2cccc(F)c2)c2cc3c(c(-c4ccnc(C)c4Cl)n2)OC[C@]3(C)C(N)=O)cc2cc(Cl)c(C)nc12 [Example 700], COc1nccc(-c2nc([C@@](O)(CNC(=O)c3cc(OC)c4nc(C5CC5)oc4c3)c3ccc(F)cc3)cc3c2OC[C@]3(C)C(N)=O)c1Cl [Example 699]

EC50, > 200 nM:
COc1cc(C(=O)NC[C@@](O)(c2ccccc2)c2cc3c(c(-n4ncc5c(F)cccc54)n2)OC[C@]3(C)C(N)=O)cc2sc(N)nc12 [Example 633], COc1cc(C(=O)NC[C@](O)(c2cc3c(c(-n4ncc5c4CCCC5)n2)OC[C@]3(C)C(N)=O)C2CC2)cc2oc(C3CC3)nc12 [Example 644], COc1cc(-c2nc([C@@](O)(CNC(=O)c3cc(OC)c4nn(C5CC5)cc4c3)C(F)(F)F)cc3c2OC[C@]3(C)C(N)=O)c(Cl)cn1 [Example 835], COc1cc(C(=O)NC[C@](O)(c2cc3c(c(-c4ccnc(C)c4Cl)n2)OC[C@]3(C)C(N)=O)C(F)(F)F)cc2cn(C3CC3)nc12 [Example 883], CC(C)c1nccc(-c2nc([C@@](O)(CNC(=O)c3cc(OC4CC4)c4nn(C(F)F)cc4c3)C3CC3)cc3c2OC[C@]3(C)C(N)=O)c1Cl [Example 914], COc1cc(C(=O)NC[C@](O)(c2cc3c(c(-c4ccn5nc(C)cc5c4Cl)n2)OC[C@]3(C)C(N)=O)C2CC2)cc2cn(C3CC3)nc12 [Example 837], COc1cc(C(=O)NC[C@](O)(c2cc3c(c(-c4ccnc(C5CCOCC5)c4Cl)n2)OC[C@]3(C)C(N)=O)C2CC2)cc2cn(C3(F)CC3)nc12 [Example 905]

Same assay, conditions: human metapneumovirus; hMPV A2 TN/94-49, LLC-MK2 cells with CP-100-356, Method 2

EC50, > 200 nM:
COc1cc(C(=O)NC[C@@](O)(c2cccc(F)c2)c2cc3c(c(-c4ccncc4Cl)n2)OC[C@]3(C)C(N)=O)cc2cn(C3CC3)nc12 [Example 377], COc1cc(OC)c2cc(C(=O)NC[C@@](O)(c3ccccc3)c3cc4c(c(-c5cc(Cl)c(F)cc5F)n3)OC[C@]4(C)C(N)=O)[nH]c2c1 [Example 94], COc1cc(C(=O)NC[C@@](O)(c2ccc(S(C)(=O)=O)cc2)c2cc3c(c(-c4cc(Cl)c(F)cc4F)n2)OC[C@]3(C)C(N)=O)cc2cn(C3CC3)nc12 [Example 482], COc1cc(C(=O)NC[C@@](O)(c2ccccc2)c2cc3c(c(-c4cccc5c4OCO5)n2)OC[C@]3(C)C(N)=O)cc2cn(C3(F)CC3)nc12 [Example 366], COc1cc(C(=O)NC[C@](O)(c2cc3c(c(-c4ccnc(C)c4Cl)n2)OC[C@]3(C)C(N)=O)C2(F)CC2)cc2oc(C(F)F)nc12 [Example 533], CC(C)c1nc2ccc(C(=O)NC[C@@](O)(c3ccccc3)c3cc4c(c(-c5cc(Cl)c(F)cc5F)n3)OC[C@]4(C)C(N)=O)cc2o1 [Example 224], COc1cc(C(=O)NCC(O)(c2ccccc2)c2cc3c(c(-c4ccc(F)cc4)n2)OC[C@]3(C)C(N)=O)cc2cn(C3(F)CC3)nc12 (stereo partly shown) [Example 361]

EC50, < 200 nM:
COc1cc(C(=O)NC[C@@](O)(c2cccc(C(C)=O)c2)c2cc3c(c(-c4cccc(Cl)c4Cl)n2)OC[C@]3(C)C(N)=O)cc2cn(C3CC3)nc12 [Example 493], [2H]c1nc2c(OC)cc(C(=O)NC[C@@](O)(c3ccccc3)c3cc4c(c(-c5cc(Cl)c(F)cc5F)n3)OC[C@]4(C)C(N)=O)cc2cc1Cl [Example 220], COc1nccc(-c2nc([C@@](O)(CNC(=O)c3cc(OC)c4nn(C5(F)CC5)cc4c3)c3cccc(F)c3)cc3c2OC[C@]3(C)C(N)=O)c1Cl [Example 559], COc1cc(C(=O)NC[C@@](O)(c2ccc(F)cc2)c2cc3c(c(-c4ccnc(C(F)(F)F)c4F)n2)OC[C@]3(C)C(N)=O)cc2cn(C(F)F)nc12 [Example 572], COc1cc(C(=O)NC[C@](O)(c2cc3c(c(-c4cc(C(F)(F)F)ncc4F)n2)OC[C@]3(C)C(N)=O)C2CC2)cc2cc(C3CC3)nn12 [Example 354], COc1cc(C(=O)NC[C@@](O)(c2cccc(F)c2)c2cc3c(c(-c4ccnc(C(F)F)c4Cl)n2)OC[C@]3(C)C(N)=O)cc2cn(C3CC3)nc12 [Example 565], COc1nccc(-c2nc([C@@](O)(CNC(=O)c3cc(Cl)c4nn(C5CC5)cc4c3)C(F)(F)F)cc3c2OC[C@]3(C)C(N)=O)c1Cl [Example 544], COc1cc(C(=O)NC[C@](O)(c2cc3c(c(-c4ccnc(F)c4Cl)n2)OC[C@]3(C)C(N)=O)C2CC2)cc2oc(C3CC3)nc12 [Example 208], C[C@]1(C(N)=O)COc2c1cc([C@@](O)(CNC(=O)c1ccc3nc(C4CC4)oc3c1)c1ccccc1)nc2-c1cccc(Cl)c1Cl [Example 97], COc1cc(C(=O)NC[C@@](O)(c2ccc(F)cc2)c2cc3c(c(-c4ccnc(C(F)(F)F)c4F)n2)OC[C@]3(C)C(N)=O)cc2oc(C(F)F)nc12 [Example 541], COc1cc(C(=O)NC[C@](O)(c2cc3c(c(-c4cc(Cl)c(F)cc4F)n2)OC[C@]3(C)C(N)=O)c2ccnn2C)cc2cn(C3CC3)nc12 [Example 481], Cc1nc2c(OC3CC3)cc(C(=O)NC[C@@](O)(c3ccccc3)c3cc4c(c(-c5cc(Cl)c(F)cc5F)n3)OC[C@]4(C)C(N)=O)cc2s1 [Example 189], [2H]C([2H])([2H])NC(=O)[C@@]1(C)COc2c1cc([C@@](O)(CNC(=O)c1cc(OC)c3nc(C4CC4)oc3c1)c1ccccc1)nc2-c1cc(Cl)c(F)cc1F [Example 110], C[C@]1(C(N)=O)COc2c1cc([C@@](O)(CNC(=O)c1cc(Cl)c3nn(C4CC4)cc3c1)C(F)(F)F)nc2-c1ccnc(C(F)F)c1Cl [Example 549], C[C@]1(C(N)=O)COc2c1cc([C@@](O)(CNC(=O)c1cc(OC3CC3)c3ncc(Cl)cc3c1)C1CC1)nc2-c1cc(F)c(F)cc1F [Example 104], C[C@]1(C(N)=O)COc2c1cc([C@@](O)(CNC(=O)c1cc(OC3CC3)c3nc(C4CC4)oc3c1)c1ccccc1)nc2-c1cc(Cl)c(F)cc1F [Example 233], COc1nccc(-c2nc([C@@](O)(CNC(=O)c3cc(OC)c4nn(C(F)F)cc4c3)c3ccccc3)cc3c2OC[C@]3(C)C(N)=O)c1Cl [Example 554], COc1cc(C(=O)NC[C@@](O)(c2cccc(F)n2)c2cc3c(c(-c4cc(Cl)c(F)cc4F)n2)OC[C@]3(C)C(N)=O)cn2cc(C3CC3)nc12 [Example 154], COc1cc(C(=O)NC[C@](O)(c2cc3c(c(-c4ccnc(C(F)(F)F)c4Cl)n2)OC[C@]3(C)C(N)=O)C(F)(F)F)cc2oc(C(F)F)nc12 [Example 597], COc1cccc(-c2nc([C@@](O)(CNC(=O)c3cc(OC)c4nn(C5(F)CC5)cc4c3)c3ccccc3)cc3c2OC[C@]3(C)C(N)=O)c1Cl [Example 374], COc1cc([C@](O)(CNC(=O)c2cc(OC)c3nn(C4CC4)cc3c2)c2cc3c(c(-c4cccc(Cl)c4Cl)n2)OC[C@]3(C)C(N)=O)cc(OC)n1 [Example 497], C[C@]1(C(N)=O)COc2c1cc([C@@](O)(CNC(=O)c1cc(OC3CC3)c3ncc(Cl)cc3c1)c1ccccc1)nc2-c1cc(Cl)c(F)cc1F [Example 196], C[C@]1(C(N)=O)COc2c1cc([C@@](O)(CNC(=O)c1cc(OC3CC3)c3ncc(Cl)cc3c1)C1CC1)nc2-c1cc(C(F)(F)F)c(F)cc1F [Example 317], COc1cc(C(=O)NC[C@@](O)(c2ccccc2)c2cc3c(c(-c4cc(Cl)c(F)cc4F)n2)OC[C@]3(C)C(N)=O)cc2oc(C3(F)CC3)nc12 [Example 241], COc1cc([C@](O)(CNC(=O)c2cc(OC)c3nn(C4CC4)cc3c2)c2cc3c(c(-c4cc(Cl)c(F)cc4F)n2)OC[C@]3(C)C(N)=O)cc(F)n1 [Example 503], C[C@]1(C(N)=O)COc2c1cc([C@@](O)(CNC(=O)c1cc(OC3CC3)n3nc(C4CC4)cc3c1)c1cccc(F)c1)nc2-c1cccc(Cl)c1Cl [Example 335], COc1cc(C(=O)NC[C@@](O)(c2cccc(F)c2)c2cc3c(c(-c4cccc(Cl)c4Cl)n2)OC[C@]3(C)C(N)=O)cn2cc(C3CC3)nc12 [Example 337], C[C@]1(C(N)=O)COc2c1cc([C@@](O)(CNC(=O)c1cc(OCCO)c3nn(C4CC4)cc3c1)C1CC1)nc2-c1cc(Cl)c(F)cc1F [Example 126], COc1cc(C(=O)NC[C@@](O)(c2ccccc2)c2cc3c(c(-c4cccc(F)c4Cl)n2)OC[C@]3(C)C(N)=O)cc2cn(C3(F)CC3)nc12 [Example 368]

— US20240368174A1, “Antiviral Heterocyclic Compounds” (Enanta Pharmaceuticals, Inc., priority 2023, published 2024)
